The test system of the test is BDF1 mice, P388 leukemia ip, median survival T/C. The test can be described thus: NCI In Vivo Anticancer Drug Screen. Data for tumor model P388 Leukemia (intraperitoneal) in B6D2F1 (BDF1) mice. Conditions: endpoint: median survival time, higher = longer survival. In short, it runs like this: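 Steps: implant the tumour, treat one group with compound and another with vehicle, record survival, then divide treated by control.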

[1] abbreviates: dose: 50.0 mg/kg/injection, schedule: Q04DX003 (ip), vehicle: saline with Tween-80.
[2] abbreviates: dose: 100.0 mg/kg/injection, schedule: Q04DX003 (ip), vehicle: saline with Tween-80.
[3] abbreviates: dose: 200.0 mg/kg/injection, schedule: Q04DX003 (ip), vehicle: saline with Tween-80.
The mark [4] stands for this setting: dose: 400.0 mg/kg/injection, schedule: Q04DX003 (ip), vehicle: saline with Tween-80.
[5] abbreviates: dose: 100.0 mg/kg/injection, schedule: Q04DX003 (ip), vehicle: Klucel (hydroxypropylcellulose) (HPC).
Where [6] appears, read: dose: 200.0 mg/kg/injection, schedule: Q04DX003 (ip), vehicle: Klucel (hydroxypropylcellulose) (HPC).
[7] abbreviates: dose: 400.0 mg/kg/injection, schedule: Q04DX003 (ip), vehicle: Klucel (hydroxypropylcellulose) (HPC).
Where [8] appears, read: dose: 25.0 mg/kg/injection, schedule: Q04DX003 (ip), vehicle: saline.
Where [9] appears, read: dose: 50.0 mg/kg/injection, schedule: Q04DX003 (ip), vehicle: saline.
Where [10] appears, read: dose: 100.0 mg/kg/injection, schedule: Q01DX009 (ip), vehicle: saline with Tween-80.
[11] abbreviates: dose: 200.0 mg/kg/injection, schedule: Q01DX009 (ip), vehicle: saline with Tween-80.
Where [12] appears, read: dose: 400.0 mg/kg/injection, schedule: Q01DX009 (ip), vehicle: saline with Tween-80.
[13] abbreviates: dose: 100.0 mg/kg/injection, schedule: Q01DX009 (ip), vehicle: Klucel (hydroxypropylcellulose) (HPC).
Where [14] appears, read: dose: 200.0 mg/kg/injection, schedule: Q01DX001 (ip), vehicle: saline with Tween-80.
[15] abbreviates: dose: 200.0 mg/kg/injection, schedule: Q01DX009 (ip), vehicle: Klucel (hydroxypropylcellulose) (HPC).
The mark [16] stands for this setting: dose: 100.0 mg/kg/injection, schedule: Q04DX003 (ip), vehicle: saline sonified.
Where [17] appears, read: dose: 200.0 mg/kg/injection, schedule: Q04DX003 (ip), vehicle: saline sonified.

Values joined by “and” are separate entries in the source; they are usually repeats but may differ in a detail not shown here. Equal entries are not always repeated. Inconclusive results and toxic doses are left out.

For `O=C(NCCCCOc1ccc([N+](=O)[O-])cc1Cl)c1ccc(S(=O)(=O)F)cc1`, the T/C is 103 % of control under setting [1]; 96 % of control and 112 % of control under setting [2]; 106 % of control under setting [3]; 90 % of control and 103 % of control under setting [4].
On to `CCCCN1CCCC(O)C1` (centres undefined), for which the T/C is, setting by setting: (dose: 50.0 mg/kg/injection, schedule: Q01DX009 (ip), vehicle: saline) 100 % of control; under setting [1], 105 % of control; (dose: 100.0 mg/kg/injection, schedule: Q01DX009 (ip), vehicle: saline) 100 % of control; under setting [2], 110 % of control; under setting [3], 100 % of control.
With `O=[N+]([O-])c1ccc(S(=O)c2ccc([N+](=O)[O-])c3no[n+]([O-])c23)cc1` (centres undefined), the T/C (dose: 10.0 mg/kg/injection, schedule: Q01DX009 (ip), vehicle: saline with Tween-80) is 104 % of control; the T/C (dose: 20.0 mg/kg/injection, schedule: Q01DX009 (ip), vehicle: saline with Tween-80) is 100 % of control; the T/C (dose: 40.0 mg/kg/injection, schedule: Q01DX009 (ip), vehicle: saline with Tween-80) was 102 % of control.
Turning to `CC[N+](CC)(CC)CCCCC[N+](CC)(CC)CC`, the T/C is, setting by setting: (dose: 6.25 mg/kg/injection, schedule: Q04DX003 (ip), vehicle: water) 104 % of control; (dose: 12.5 mg/kg/injection, schedule: Q04DX003 (ip), vehicle: water) 114 % of control; (dose: 25.0 mg/kg/injection, schedule: Q04DX003 (ip), vehicle: water) 100 % of control and 114 % of control.
As for `O=Cc1[nH]c(=S)[nH]c(=O)c1Cc1ccccc1Cl`, the T/C by setting is: under setting [5], 100 % of control; under setting [6], 100 % of control; under setting [7], 100 % of control.
For `N#Cc1nc2c(nc1C#N)-c1ccccc1C2=O`, the T/C is 100 % of control (dose: 6.0 mg/kg/injection, schedule: Q01DX009 (ip), vehicle: Klucel (hydroxypropylcellulose) (HPC)); 100 % of control (dose: 6.25 mg/kg/injection, schedule: Q04DX003 (ip), vehicle: Klucel (hydroxypropylcellulose) (HPC)); 107 % of control (dose: 12.0 mg/kg/injection, schedule: Q01DX009 (ip), vehicle: Klucel (hydroxypropylcellulose) (HPC)); 108 % of control (dose: 12.5 mg/kg/injection, schedule: Q04DX003 (ip), vehicle: Klucel (hydroxypropylcellulose) (HPC)); 104 % of control (dose: 25.0 mg/kg/injection, schedule: Q04DX003 (ip), vehicle: Klucel (hydroxypropylcellulose) (HPC)).
As to `CC(O)CN1CC(C)N(CC(C)O)CC1C` (centres undefined), the T/C by setting is: (dose: 12.5 mg/kg/injection, schedule: Q04DX003 (ip), vehicle: saline) 104 % of control; under setting [8], 100 % of control; under setting [9], 100 % of control.
Take `C[N+](C)(C)CCOC(=O)c1ccccc1`: the T/C was 109 % of control under setting [10], 117 % of control under setting [11] and 102 % of control under setting [12].
In the case of `C/C(=C\COc1ccc2ccc(=O)oc2c1)C1=CC(=O)C(C)(C)O1`, the T/C is 93 % of control (dose: 25.0 mg/kg/injection, schedule: Q01DX009 (ip), vehicle: Klucel (hydroxypropylcellulose) (HPC)); 94 % of control (dose: 50.0 mg/kg/injection, schedule: Q01DX009 (ip), vehicle: Klucel (hydroxypropylcellulose) (HPC)); 100 % of control (dose: 100.0 mg/kg/injection, schedule: Q01DX001 (ip), vehicle: saline with Tween-80); 87 % of control under setting [13]; 115 % of control under setting [10]; 103 % of control under setting [14]. Also, the T/C is, setting by setting: under setting [15], 95 % of control; (dose: 400.0 mg/kg/injection, schedule: Q01DX001 (ip), vehicle: saline with Tween-80) 100 % of control.
`O=C(Nc1ccccc1C(=O)c1ccccn1)c1ccccc1`: the T/C runs as follows: under setting [16], 90 % of control; under setting [17], 90 % of control; (dose: 400.0 mg/kg/injection, schedule: Q04DX003 (ip), vehicle: saline sonified) 90 % of control.
With `CCOC(=O)C1(C)C(=O)CC2c3nc4ccccc4cc3CN2C1=O` (centres undefined), the T/C was 100 % of control under setting [5], 100 % of control under setting [6] and 100 % of control under setting [7].
As to `CCN(CC)c1ccc(/C=C/c2ccncc2)cc1`, the T/C is 100 % of control under setting [5], 100 % of control under setting [6] and 109 % of control under setting [7].
On to `NC(c1ccccc1)c1c(O)ccc2ccccc12` (centres undefined), for which the T/C (dose: 100.0 mg/kg/injection, schedule: Q01DX009 (ip), vehicle: gum acacia) was 103 % of control; the T/C (dose: 100.0 mg/kg/injection, schedule: Q04DX003 (ip), vehicle: gum acacia) is 109 % of control; the T/C (dose: 200.0 mg/kg/injection, schedule: Q01DX009 (ip), vehicle: gum acacia) was 107 % of control; the T/C (dose: 200.0 mg/kg/injection, schedule: Q04DX003 (ip), vehicle: gum acacia) was 122 % of control; the T/C (dose: 400.0 mg/kg/injection, schedule: Q01DX009 (ip), vehicle: gum acacia) was 117 % of control; the T/C (dose: 400.0 mg/kg/injection, schedule: Q04DX003 (ip), vehicle: gum acacia) is 122 % of control.
In the case of `CC1CC(C)(C)N=C(CCC[N+](=O)[O-])O1` (centres undefined), the T/C (dose: 50.0 mg/kg/injection, schedule: Q04DX003 (ip), vehicle: saline sonified) was 105 % of control; the T/C under setting [16] was 105 % of control; the T/C under setting [17] was 105 % of control.
For `CCOC(=O)CCc1nc(C(=O)OCC)c(C)c(=O)[nH]1`, the T/C runs as follows: under setting [2], 107 % of control; under setting [3], 103 % of control; under setting [4], 100 % of control.
On to `COC(=O)CCSCCC(=O)OC`, for which the T/C was 100 % of control under setting [10]; 110 % of control under setting [2]; 100 % of control under setting [11]; 100 % of control under setting [3]; 100 % of control under setting [12]; 105 % of control under setting [4].
Turning to `O=c1ccc2nccc3c4ccccc4n1c23`, the T/C reads like this: (dose: 100.0 mg/kg/injection, schedule: Q01DX001 (ip), vehicle: saline sonified) 100 % of control; (dose: 200.0 mg/kg/injection, schedule: Q01DX001 (ip), vehicle: saline sonified) 100 % of control; (dose: 400.0 mg/kg/injection, schedule: Q01DX001 (ip), vehicle: saline sonified) 100 % of control.
As to `C=C(C)C1CC=C(/C=N/O)CC1` (centres undefined), the T/C is, setting by setting: under setting [2], 100 % of control; under setting [3], 100 % of control; under setting [4], 95 % of control.
As to `CCOC(=S)N/N=C(\C)CC`, the T/C runs as follows: (dose: 2.5 mg/kg/injection, schedule: Q01DX009 (ip), vehicle: saline with Tween-80) 93 % of control; (dose: 5.0 mg/kg/injection, schedule: Q01DX009 (ip), vehicle: saline with Tween-80) 93 % of control.
For the compound `C[C@@H]1CC2=CC(=O)CC[C@@H]2[C@H]2CC[C@@]3(C)[C@@H](CC[C@]3(C)O)[C@@H]21`, the T/C is 104 % of control under setting [10], 100 % of control under setting [2] and 90 % of control under setting [11].
In the case of `Cc1ccc(C2=C(Cl)C(=O)NC2=O)s1`, where the note is “dose: 12.5 mg/kg/injection, schedule: Q01DX001 (ip), vehicle: saline with Tween-80”, the T/C was 112 % of control.
As to `Cc1ccc(NCCN2CCCCC2)c2c(=O)c3ccccc3sc12`, the T/C is, setting by setting: under setting [13], 115 % of control; under setting [5], 115 % of control; under setting [15], 110 % of control; under setting [6], 115 % of control; (dose: 264.0 mg/kg/injection, schedule: Q01DX009 (ip), vehicle: Klucel (hydroxypropylcellulose) (HPC)) 150 % of control; (dose: 264.0 mg/kg/injection, schedule: Q04DX003 (ip), vehicle: Klucel (hydroxypropylcellulose) (HPC)) 118 % of control and 120 % of control. The T/C under setting [7] was 122 % of control.
For the compound `CN(C)c1ccc(/C=C\c2ccnc3ccc(-c4ccccc4)cc23)cc1`, the T/C runs as follows: (dose: 50.0 mg/kg/injection, schedule: Q01DX009 (ip), vehicle: saline with Tween-80) 94 % of control; under setting [10], 94 % of control; under setting [11], 94 % of control.
In the case of `[Cl][Co][Cl].[NH-]CCC[NH-].[NH-]CCC[NH-]`, the T/C under setting [8] was 105 % of control and the T/C under setting [9] was 110 % of control.
As for `O=Cc1c2ccc(Cl)cc2nc2cc(Cl)ccc12`, the T/C under setting [14] is 91 % of control.
